As usually defined, the pIC50 is −log10 of the IC50, conventionally taken in molar units. Lower therefore signals a large IC50. What is called GI50 is the concentration giving 50% growth inhibition.

Here are results for five compounds from ChEMBL document CHEMBL4613204, “Lysine demethylase 5B (KDM5B): A potential anti-cancer drug target” (Eur J Med Chem, 2019).

Assay [1] addresses T1, Lysine-specific demethylase 5B (Homo sapiens, UniProt Q9UGL1). Put plainly: Inhibition of KDM5B (unknown origin).
In a further assay the test system is MDA-MB-231. The assay can be described thus: Antiproliferative activity against human MDA-MB-231 cells assessed as growth inhibition. It counts as functional.
In a further assay the test system is MCF7. The assay can be described thus: Antiproliferative activity against human MCF7 cells assessed as growth inhibition. It counts as functional.
The nature of assay [2]: Selectivity ratio of GI50 for human […] cells. It counts as functional.
Assay [3] concerns the target Lysine-specific demethylase 5C (Homo sapiens, UniProt P41229). The assay can be described thus: Inhibition of KDM5C (1 to 789 residues) (unknown origin).
Assay [4] concerns the target T1, Lysine-specific demethylase 5B. The assay can be described thus: Inhibition of KDM5B (1 to 755 residues) (unknown origin).

pIC50: −log10 of the molar value.

T1 sequence (Q9UGL1 whole entry): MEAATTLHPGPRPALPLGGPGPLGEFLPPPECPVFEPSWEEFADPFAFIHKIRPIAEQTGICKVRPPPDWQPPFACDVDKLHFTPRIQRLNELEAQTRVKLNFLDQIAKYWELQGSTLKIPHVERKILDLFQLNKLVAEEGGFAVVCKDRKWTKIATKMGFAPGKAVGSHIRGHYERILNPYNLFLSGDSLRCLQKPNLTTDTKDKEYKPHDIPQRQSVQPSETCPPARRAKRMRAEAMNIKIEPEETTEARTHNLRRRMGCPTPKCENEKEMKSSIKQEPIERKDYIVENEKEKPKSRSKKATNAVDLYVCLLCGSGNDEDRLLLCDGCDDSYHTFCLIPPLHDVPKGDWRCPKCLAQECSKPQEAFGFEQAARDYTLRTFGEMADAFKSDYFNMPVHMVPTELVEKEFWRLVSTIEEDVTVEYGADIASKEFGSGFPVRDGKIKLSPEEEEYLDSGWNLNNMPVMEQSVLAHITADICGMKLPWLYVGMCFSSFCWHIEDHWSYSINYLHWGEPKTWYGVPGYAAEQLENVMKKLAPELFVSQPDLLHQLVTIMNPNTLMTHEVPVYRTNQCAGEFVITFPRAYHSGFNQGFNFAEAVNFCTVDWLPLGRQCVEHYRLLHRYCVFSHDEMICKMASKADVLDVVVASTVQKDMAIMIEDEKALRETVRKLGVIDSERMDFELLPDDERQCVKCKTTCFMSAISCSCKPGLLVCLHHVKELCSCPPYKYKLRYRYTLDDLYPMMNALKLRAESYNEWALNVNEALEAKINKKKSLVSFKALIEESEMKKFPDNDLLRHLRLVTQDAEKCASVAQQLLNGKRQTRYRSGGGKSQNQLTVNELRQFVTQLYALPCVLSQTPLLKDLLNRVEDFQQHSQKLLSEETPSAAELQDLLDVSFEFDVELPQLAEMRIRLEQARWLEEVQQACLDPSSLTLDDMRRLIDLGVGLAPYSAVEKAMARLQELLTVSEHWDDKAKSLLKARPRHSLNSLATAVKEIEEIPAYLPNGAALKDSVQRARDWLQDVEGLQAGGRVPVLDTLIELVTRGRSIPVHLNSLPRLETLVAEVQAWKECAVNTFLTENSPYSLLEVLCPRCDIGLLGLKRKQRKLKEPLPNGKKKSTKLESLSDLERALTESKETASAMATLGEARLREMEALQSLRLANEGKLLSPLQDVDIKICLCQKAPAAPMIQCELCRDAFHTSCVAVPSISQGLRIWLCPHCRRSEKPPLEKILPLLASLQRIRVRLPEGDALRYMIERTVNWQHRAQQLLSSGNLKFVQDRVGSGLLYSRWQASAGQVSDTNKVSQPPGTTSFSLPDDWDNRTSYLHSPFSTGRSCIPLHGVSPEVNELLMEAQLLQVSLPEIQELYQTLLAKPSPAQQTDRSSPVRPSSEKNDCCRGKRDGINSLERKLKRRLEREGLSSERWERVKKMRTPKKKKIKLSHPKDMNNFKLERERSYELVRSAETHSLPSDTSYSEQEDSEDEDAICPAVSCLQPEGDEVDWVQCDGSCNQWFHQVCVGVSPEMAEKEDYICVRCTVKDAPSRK
Sequence of Lysine-specific demethylase 5C (P41229 whole entry, the tested form may be a part): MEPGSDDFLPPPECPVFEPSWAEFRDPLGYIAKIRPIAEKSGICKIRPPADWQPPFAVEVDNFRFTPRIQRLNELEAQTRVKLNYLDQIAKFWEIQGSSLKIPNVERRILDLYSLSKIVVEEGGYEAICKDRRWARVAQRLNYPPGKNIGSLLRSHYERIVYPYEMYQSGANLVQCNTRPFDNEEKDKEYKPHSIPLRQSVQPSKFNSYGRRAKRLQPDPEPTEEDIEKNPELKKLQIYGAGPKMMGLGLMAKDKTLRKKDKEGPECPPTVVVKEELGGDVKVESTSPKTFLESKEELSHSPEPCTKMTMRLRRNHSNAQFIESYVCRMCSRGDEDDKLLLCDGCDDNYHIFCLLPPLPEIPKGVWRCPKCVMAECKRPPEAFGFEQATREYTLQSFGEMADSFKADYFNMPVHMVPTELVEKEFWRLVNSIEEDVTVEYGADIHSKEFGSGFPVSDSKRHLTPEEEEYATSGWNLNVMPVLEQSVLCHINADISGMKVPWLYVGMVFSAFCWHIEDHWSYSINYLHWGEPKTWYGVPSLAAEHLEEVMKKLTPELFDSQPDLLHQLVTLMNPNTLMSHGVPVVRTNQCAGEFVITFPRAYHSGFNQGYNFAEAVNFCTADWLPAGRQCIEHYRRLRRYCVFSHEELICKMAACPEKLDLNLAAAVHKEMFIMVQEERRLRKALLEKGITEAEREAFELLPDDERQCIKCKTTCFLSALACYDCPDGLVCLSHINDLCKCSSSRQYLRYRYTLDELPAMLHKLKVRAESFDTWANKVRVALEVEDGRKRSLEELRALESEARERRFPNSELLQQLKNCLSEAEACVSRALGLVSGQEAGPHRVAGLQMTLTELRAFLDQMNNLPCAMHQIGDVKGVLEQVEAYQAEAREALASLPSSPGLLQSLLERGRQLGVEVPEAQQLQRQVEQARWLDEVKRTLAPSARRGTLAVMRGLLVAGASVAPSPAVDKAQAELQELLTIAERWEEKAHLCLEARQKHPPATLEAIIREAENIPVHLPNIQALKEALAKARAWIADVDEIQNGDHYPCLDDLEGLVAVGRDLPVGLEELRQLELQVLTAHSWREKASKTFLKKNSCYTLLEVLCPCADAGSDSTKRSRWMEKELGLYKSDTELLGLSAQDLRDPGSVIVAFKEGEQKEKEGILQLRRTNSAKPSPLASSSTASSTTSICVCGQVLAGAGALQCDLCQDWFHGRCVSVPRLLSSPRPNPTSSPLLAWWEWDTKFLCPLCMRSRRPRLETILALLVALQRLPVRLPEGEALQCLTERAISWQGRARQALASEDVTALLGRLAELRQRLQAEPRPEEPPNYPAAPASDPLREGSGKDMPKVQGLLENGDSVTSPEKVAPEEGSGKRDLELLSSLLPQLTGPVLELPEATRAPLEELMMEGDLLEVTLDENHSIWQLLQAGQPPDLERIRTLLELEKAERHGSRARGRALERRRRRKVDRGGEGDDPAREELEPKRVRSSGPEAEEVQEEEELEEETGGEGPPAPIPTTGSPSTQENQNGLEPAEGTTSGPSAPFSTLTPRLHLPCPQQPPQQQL

Consider `Cc1ccc(-n2sc3ccccc3c2=O)cc1`, for which the pIC50 in assay [1] is 5.52. With `Clc1ccc(N/N=C(\c2ccccc2)c2ccccn2)nc1`, the values for the GI50 in the assay on MDA-MB-231 and in the assay with MCF7 were 0.3 µM and 0.022 µM, respectively. Moreover, in assay [2], the Selectivity ratio was determined as 14. In addition, the results for the pIC50 in assay [3] and in assay [4] were 4.38 and 5.30, respectively. `CC(C)c1c(-c2ccccc2)[nH]c2c(C#N)cnn2c1=O` gave a pIC50 in assay [1] of 8.00.

Turning to `CCOC(=O)c1c(O)c2ccncc2[nH]c1=O`, the negative-log IC50 (pIC50) in assay [1] is 7.70. This pIC50 is 0.30 log units lower than that of the compound before. Still for that read-out and setting: under `O=C(O)CCC(=O)C(=O)O` [ALPHA-KETOGLUTARIC ACID] stands 3.10.
